Reference: publication PMC10970644, “Molecular Pharmacology of Gelsemium Alkaloids on Inhibitory Receptors” (International Journal of Molecular Sciences, 2024)
“Also recorded” adds a separate entry of the source.

Tests used:
α1β GlyR = molecular target: T1, α1β GlyR (Rattus norvegicus, UniProt P07727+P20781); experiment: cell-based
T1 construct: The cells were transfected with plasmids encoding the following proteins; expressed in transfected cells; host or cells: HEK293 (ATCC CRL-1573)
Method: (§1) The cells were transfected with plasmids encoding the following proteins: (i). rat GlyR α (1, 2, 3) subunits alone or combined with rat β subunits (Uniprot Accession Numbers: Q546L7, P22771, P20236, P20781); and (ii). rat GABAAR α1 combined with rat β2 and γ2 subunits (Uniprot Accession Numbers: P62813, P63138, P18508). The EGFP expression was used as a marker of successful protein expression. The transfection was performed using Lipofectamine 2000 (Invitrogen, ThermoFisher, Carlsbad, CA, USA) using the fabricant protocol. The plasmids used to express GlyRs and GABAARs have been previously described. To track the successful expression of GlyR β subunits and the GABAA γ2 or β2 subunit, these proteins were subcloned in the pIRES2-EGFP vector. The transfection ratio to obtain β-containing GlyRs was 1:5 of α:β, while the expression of γ2-containing GABAA receptors was 1:2:5 of α:β:γ2 [14, 15]. Chimeric GlyRs were described in a previous report. Site directed mutagenesis was performed by Charm Gene Science Mutagenex LLC. (Cumming, GA, USA). All the constructs were checked by full-length sequencing (SNPSaurus, Eugene, OR, USA).
(§2) In brief, patch electrodes (3–4 MΩ) were pulled from borosilicate glasses in a PC-100 puller (Narishige, Tokyo, Japan); then, they were filled with an intracellular solution, which contained (in mM) 120 CsCl, 8 EGTA, 10 HEPES (pH 7.4), 4 MgCl2, 0.5 GTP, and 2 ATP. The extracellular solution contained (in mM) 140 NaCl, 5.4 KCl, 2.0 CaCl2, 1.0 MgCl2, 10 HEPES (pH 7.4), and 10 glucose. Whole-cell patch-clamp recordings were performed at −60 mV with an Axoclamp 200B (Molecular Devices, Sunnyvale, CA, USA) or with HEKA EPC-10 (HEKA Elektronik GmbH, Reutlingen, Germany) amplifiers. […] Brief (3–5 s) pulses of agonist together with alkaloids were applied to cells. Stock solutions of the alkaloids were prepared in high purity distilled water. Aliquots of these stock solutions were diluted in reservoirs containing extracellular solution. […] The concentration–response curve parameters for the alkaloid inhibition (IC50, nH, and the maximal current inhibition) were obtained from the fitted curve of normalized concentration–response data points to the equation Iagonist = Imax (agonist)nH/((agonist)nH + (EC50)nH). The IC50 curves are best-fit mean ± SE from pooled data. […] The inhibition constant (Ki) was calculated using the Cheng–Prusoff equation (Ki = IC50/((2 + ([Agonist]/EC50)^nH)^1/nH − 1). The concentration of agonist corresponds to the sub-saturating agonist concentration used to obtain the IC50 for each alkaloid on a given GlyR subtype.

[1] = in vivo studies; cited from earlier work
α1β2γ2 GABAARs = molecular target: T2, α1β2γ2 GABAARs (Rattus norvegicus, UniProt P62813+P63138); type: cell-based; conditions: 50 μM alkaloid; 1 μM GABA
T2 construct: The cells were transfected with plasmids encoding the following proteins; expressed in transfected cells; host or cells: HEK293 (ATCC CRL-1573)
T2 sequence (P62813 28-455): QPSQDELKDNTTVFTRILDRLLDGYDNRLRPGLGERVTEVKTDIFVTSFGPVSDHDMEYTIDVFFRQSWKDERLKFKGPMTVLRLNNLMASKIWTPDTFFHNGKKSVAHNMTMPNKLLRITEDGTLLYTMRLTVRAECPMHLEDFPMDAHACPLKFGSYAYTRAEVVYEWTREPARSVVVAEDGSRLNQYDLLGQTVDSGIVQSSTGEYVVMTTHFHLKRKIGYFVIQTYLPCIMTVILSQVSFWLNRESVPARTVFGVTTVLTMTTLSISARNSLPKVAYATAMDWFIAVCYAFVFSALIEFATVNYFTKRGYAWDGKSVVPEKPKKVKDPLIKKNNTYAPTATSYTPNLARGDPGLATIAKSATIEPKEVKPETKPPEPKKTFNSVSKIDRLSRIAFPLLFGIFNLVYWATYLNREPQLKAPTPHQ
T2 sequence (P63138 26-474): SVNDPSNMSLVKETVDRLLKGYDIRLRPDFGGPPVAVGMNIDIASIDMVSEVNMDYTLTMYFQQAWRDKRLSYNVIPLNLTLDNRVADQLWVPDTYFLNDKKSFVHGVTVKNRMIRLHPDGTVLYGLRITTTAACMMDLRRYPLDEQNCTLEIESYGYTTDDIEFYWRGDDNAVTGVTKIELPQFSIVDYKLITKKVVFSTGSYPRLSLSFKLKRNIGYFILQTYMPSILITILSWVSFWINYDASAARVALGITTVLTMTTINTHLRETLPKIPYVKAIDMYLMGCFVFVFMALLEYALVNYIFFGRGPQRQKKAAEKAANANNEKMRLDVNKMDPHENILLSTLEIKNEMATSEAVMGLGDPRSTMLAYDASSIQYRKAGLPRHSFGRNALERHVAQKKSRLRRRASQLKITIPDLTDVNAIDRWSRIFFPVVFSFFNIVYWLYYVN
T2 sequence (P18508 39-466 partner): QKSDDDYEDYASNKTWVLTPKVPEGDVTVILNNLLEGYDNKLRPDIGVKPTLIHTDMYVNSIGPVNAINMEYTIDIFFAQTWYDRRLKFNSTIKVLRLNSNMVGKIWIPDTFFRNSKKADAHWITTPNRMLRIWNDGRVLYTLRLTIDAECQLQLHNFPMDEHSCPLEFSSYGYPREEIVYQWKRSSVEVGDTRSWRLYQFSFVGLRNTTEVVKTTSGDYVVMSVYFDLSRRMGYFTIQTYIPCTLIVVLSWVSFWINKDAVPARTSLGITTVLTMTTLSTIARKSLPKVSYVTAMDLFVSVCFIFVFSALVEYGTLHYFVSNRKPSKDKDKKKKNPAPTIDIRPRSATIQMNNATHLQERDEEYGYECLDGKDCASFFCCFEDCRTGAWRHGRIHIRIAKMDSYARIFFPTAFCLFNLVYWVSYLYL
Method: as §1
as §2, with “The” for “The inhibition constant (Ki) was calculated using the Cheng–Prusoff equation (Ki = IC50/((2 + ([Agonist]/EC50)^nH)^1/nH − 1). The”

α3 GlyR = molecular target: T3, α3 GlyR (Rattus norvegicus, UniProt P24524); experiment: cell-based; type: cell-based
T3 construct: expressed in transfected cells; host or cells: HEK293 (ATCC CRL-1573)
T3 sequence (P24524 34-464): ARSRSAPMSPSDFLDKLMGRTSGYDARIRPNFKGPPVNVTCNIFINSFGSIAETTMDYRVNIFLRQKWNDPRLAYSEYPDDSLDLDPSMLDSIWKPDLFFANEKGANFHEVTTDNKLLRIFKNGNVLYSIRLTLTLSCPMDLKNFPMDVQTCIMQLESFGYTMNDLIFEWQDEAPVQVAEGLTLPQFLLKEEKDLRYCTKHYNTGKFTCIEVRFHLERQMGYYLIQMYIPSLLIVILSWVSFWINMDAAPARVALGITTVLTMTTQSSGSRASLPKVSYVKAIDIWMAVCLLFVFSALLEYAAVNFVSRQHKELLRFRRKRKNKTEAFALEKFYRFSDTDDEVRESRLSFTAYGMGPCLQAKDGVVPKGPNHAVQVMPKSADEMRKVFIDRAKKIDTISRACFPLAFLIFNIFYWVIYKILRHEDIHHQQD
Method: as §1, §2

α2β GlyR = molecular target: T4, α2β GlyR (Rattus norvegicus, UniProt P20781+P22771); experiment: cell-based; type: cell-based
T4 construct: The cells were transfected with plasmids encoding the following proteins; expressed in transfected cells; host or cells: HEK293 (ATCC CRL-1573)
T4 sequence (P20781 23-496, one chain of several): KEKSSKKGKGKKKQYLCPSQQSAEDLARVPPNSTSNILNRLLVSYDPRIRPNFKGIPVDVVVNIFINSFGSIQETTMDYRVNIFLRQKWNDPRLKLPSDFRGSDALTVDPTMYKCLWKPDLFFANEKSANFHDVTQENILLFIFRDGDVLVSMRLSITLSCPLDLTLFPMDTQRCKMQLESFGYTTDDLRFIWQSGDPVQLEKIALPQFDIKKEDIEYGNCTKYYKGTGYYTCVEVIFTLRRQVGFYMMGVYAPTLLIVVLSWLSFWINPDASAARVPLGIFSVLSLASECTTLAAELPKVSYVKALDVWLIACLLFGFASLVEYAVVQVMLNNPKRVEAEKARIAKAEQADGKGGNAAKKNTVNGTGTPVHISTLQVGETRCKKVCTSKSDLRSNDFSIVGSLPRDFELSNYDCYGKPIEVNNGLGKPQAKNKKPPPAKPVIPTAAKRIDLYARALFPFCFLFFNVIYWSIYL
Method: as §1, §2

α2 GlyR = molecular target: T5, α2 GlyR (Rattus norvegicus, UniProt P22771); experiment: cell-based; type: cell-based
T5 construct: The cells were transfected with plasmids encoding the following proteins; expressed in transfected cells; host or cells: HEK293 (ATCC CRL-1573)
T5 sequence (P22771 28-452): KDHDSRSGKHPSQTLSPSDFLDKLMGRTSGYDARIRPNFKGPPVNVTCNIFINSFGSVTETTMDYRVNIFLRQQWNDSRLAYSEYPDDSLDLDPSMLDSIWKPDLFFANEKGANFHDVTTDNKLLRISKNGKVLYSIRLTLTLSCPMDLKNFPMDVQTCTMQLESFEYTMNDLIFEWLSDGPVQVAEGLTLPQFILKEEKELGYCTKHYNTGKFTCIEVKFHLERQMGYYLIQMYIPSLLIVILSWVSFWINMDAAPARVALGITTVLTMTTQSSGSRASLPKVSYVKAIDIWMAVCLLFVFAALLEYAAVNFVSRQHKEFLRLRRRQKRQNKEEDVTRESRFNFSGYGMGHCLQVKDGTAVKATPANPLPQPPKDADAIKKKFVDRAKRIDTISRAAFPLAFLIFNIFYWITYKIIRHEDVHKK
Method: as §1, §2

α1 GlyR = molecular target: T6, α1 GlyR (Rattus norvegicus, UniProt P07727); experiment: cell-based; type: cell-based
T6 construct: expressed in transfected cells; host or cells: HEK293 (ATCC CRL-1573)
T6 sequence (P07727 29-457): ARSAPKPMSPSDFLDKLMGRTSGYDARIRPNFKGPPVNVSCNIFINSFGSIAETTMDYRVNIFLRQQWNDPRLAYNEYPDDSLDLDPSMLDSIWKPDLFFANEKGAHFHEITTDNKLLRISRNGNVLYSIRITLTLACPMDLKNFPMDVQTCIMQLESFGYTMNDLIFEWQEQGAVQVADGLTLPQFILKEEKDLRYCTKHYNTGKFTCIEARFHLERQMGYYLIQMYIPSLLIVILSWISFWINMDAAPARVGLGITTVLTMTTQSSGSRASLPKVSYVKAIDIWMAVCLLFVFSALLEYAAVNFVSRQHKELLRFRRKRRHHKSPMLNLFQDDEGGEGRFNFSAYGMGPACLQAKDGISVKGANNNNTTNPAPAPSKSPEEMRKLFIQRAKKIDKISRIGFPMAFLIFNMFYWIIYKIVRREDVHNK
Method: as §1, §2

α3β GlyR = molecular target: T7, α3β GlyR (Rattus norvegicus, UniProt P20781+P24524); experiment: cell-based; type: cell-based
T7 construct: The cells were transfected with plasmids encoding the following proteins; expressed in transfected cells; host or cells: HEK293 (ATCC CRL-1573)
T7 sequence (P20781 23-496, one chain of several): as the sequence (P20781 23-496, one chain of several) above
Method: as §1
as §2, with “The” for “The inhibition constant (Ki) was calculated using the Cheng–Prusoff equation (Ki = IC50/((2 + ([Agonist]/EC50)^nH)^1/nH − 1). The”

[2] = percentage change of glycine-evoked current

T1 sequence (P20781 23-496, one chain of several): as the sequence (P20781 23-496, one chain of several) above

Compound: CCC1=N[C@H]2C[C@@]3(C(=O)N(OC)c4ccccc43)[C@H]3C[C@@H]1[C@@H]2CO3 [humantenmine]
- Maximal Modulation Concentration (α1β GlyR): 0.01 µM
- Maximal Modulation (α1β GlyR; [2]): −7.33 ± 10.8%
- LD50 [1]: lower than 0.2 mg/kg
- modulation of GABAARs (in words) (α1β2γ2 GABAARs): did not elicit any detectable alterations; also recorded: insensitive
- Maximal Modulation Concentration (α3 GlyR): 0.1 µM
- Maximal Modulation (α3 GlyR; [2]): −20.2 ± 10.7%
- Maximal Modulation Concentration (α2β GlyR): 50 µM
- Maximal Modulation (α2β GlyR; [2]): −10.3 ± 11.2%
- Maximal Modulation Concentration (α2 GlyR): 50 µM
- Maximal Modulation (α2 GlyR; [2]): 8.7 ± 9.6%
- Maximal Modulation Concentration (α1 GlyR): 300 µM
- modulation of glycine-evoked current (α1 GlyR; 300 μM of the alkaloid): −19.2 ± 7.8%
- modulation of α1GlyRs (in words) (α1 GlyR; concentration range of 10 μM to 300 μM): did not display any detectable activity; also recorded: did not significantly modulate
- Maximal Modulation (α1 GlyR; [2]): −19.2 ± 7.8%
- Maximal Modulation Concentration (α3β GlyR): 300 µM
- Maximal Modulation (α3β GlyR; [2]): −15.6 ± 3.8%
